Reference: ChEMBL document CHEMBL4417631, “Oral peptide inhibitors of interleukin-23 receptor and their use to treat inflammatory bowel diseases” (2017)
*1 amine or outer side, *2 acyl side, *3 side chain or, on linkers, in order; H or OH if unused. Where a SMILES comes first, the peptide text is derived from it. Bridges are numbered along the chain shown (N, C = ends). [ ]: non-standard residue; d: D form. Abu(4-yl) = O=C([C@H](CC[*:3])N[*:1])[*:2]; Pen = CC(C)(S)[C@H](N)C(=O)O; hLeu = CC(C)CC[C@H](N)C(=O)O

What was measured:
Interleukin-23 receptor [1] = target: T1, Interleukin-23 receptor (Homo sapiens, UniProt Q5VWK5); assay: Inhibition of interleukin-23 binding to human interleukin-23 receptor incubated for 2 hrs by competitive binding ELISA
T1 sequence (Q5VWK5 whole entry): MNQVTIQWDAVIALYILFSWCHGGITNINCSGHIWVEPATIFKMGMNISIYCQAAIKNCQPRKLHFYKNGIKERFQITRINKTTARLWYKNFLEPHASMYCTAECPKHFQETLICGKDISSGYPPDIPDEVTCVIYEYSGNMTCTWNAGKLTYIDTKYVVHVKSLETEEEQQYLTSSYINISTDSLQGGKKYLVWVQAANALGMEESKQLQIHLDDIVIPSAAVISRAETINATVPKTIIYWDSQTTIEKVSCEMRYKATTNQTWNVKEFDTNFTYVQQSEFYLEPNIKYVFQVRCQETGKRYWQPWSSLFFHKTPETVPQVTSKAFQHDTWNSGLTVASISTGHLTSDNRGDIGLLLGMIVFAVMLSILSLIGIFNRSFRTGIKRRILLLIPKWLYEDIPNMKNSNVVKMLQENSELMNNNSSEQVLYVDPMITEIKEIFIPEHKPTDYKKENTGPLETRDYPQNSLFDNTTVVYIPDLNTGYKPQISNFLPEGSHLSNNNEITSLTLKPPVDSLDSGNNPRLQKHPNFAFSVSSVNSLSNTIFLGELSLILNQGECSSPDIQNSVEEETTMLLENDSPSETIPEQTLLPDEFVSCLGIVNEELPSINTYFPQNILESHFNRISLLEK

[2] = Half life in simulated intestinal fluid at 20 uM by LC-MS/MS analysis; format: ADME
Interleukin-23 receptor [3] = target: T1, Interleukin-23 receptor; assay: Inhibition of interleukin-23 receptor in human DB cells assessed as reduction in IL-23-stimulated STAT3 phosphorylation incubated for 30 mins by HTRF assay; format: cell-based

Compound | IC50 (Interleukin-23 receptor [1]) [nM] | half-life at 20 µM [2] [h] | IC50 (Interleukin-23 receptor [3]) [nM]
COc1ccc(CC[C@H](NC(=O)[C@@H]2CSCC[C@H](NC(C)=O)C(=O)N[C@@H](CCC(N)=O)C(=O)N[C@@H]([C@@H](C)O)C(=O)N[C@@H](Cc3c[nH]c4ccccc34)C(=O)N[C@@H](CCC(N)=O)C(=O)N2)C(=O)N[C@@H](Cc2ccc3ccccc3c2)C(=O)N[C@@](C)(CCCCN)C(=O)N[C@@H](CCCCNC(C)=O)C(=O)N[C@@H](CC(N)=O)C(=O)NCC(N)=O)cc1OC | > 1000 | 3 to 6 | 
CC(=O)N[C@H]1CCSC[C@H](C(=O)N[C@@H](Cc2ccc(O)cc2)C(=O)N[C@@H](Cc2c[nH]c3ccccc23)C(=O)N[C@@H](CCC(C)C)C(=O)N[C@@H](CCC(=O)O)C(=O)N[C@@H](CC(N)=O)C(=O)NCC(N)=O)NC(=O)[C@H](CCC(N)=O)NC(=O)[C@H](Cc2c[nH]c3ccccc23)NC(=O)[C@H]([C@@H](C)O)NC(=O)[C@H](CCC(N)=O)NC1=O | > 1000 | 1 to 2 | 
CCCCCCCC[C@H](NC(=O)[C@@H]1CSCC[C@H](NC(C)=O)C(=O)N[C@@H](CCC(N)=O)C(=O)N[C@@H]([C@@H](C)O)C(=O)N[C@@H](Cc2c[nH]c3ccccc23)C(=O)N[C@@H](CCC(N)=O)C(=O)N1)C(=O)N[C@@H](Cc1ccc2ccccc2c1)C(=O)N[C@@](C)(CCCCN)C(=O)N[C@@H](CCCCNC(C)=O)C(=O)N[C@@H](CC(N)=O)C(=O)NCC(N)=O | 10000 | < 1 | 
CC(=O)NC[C@H](NC(=O)[C@H](CCCN)NC(=O)[C@H](Cc1c[nH]c2ccccc12)NC(=O)[C@H](Cc1ccc(OCCN)cc1)NC(=O)[C@@H]1CSCC[C@H](NC(C)=O)C(=O)N[C@@H](CCC(N)=O)C(=O)N[C@@H]([C@@H](C)O)C(=O)N[C@@H](Cc2c[nH]c3ccccc23)C(=O)N[C@@H](CCC(N)=O)C(=O)N1)C(=O)N[C@@H](CC(N)=O)C(=O)NCC(N)=O | 100 to 1000 | < 1 | 
CCCCCCCC[C@H](NC(=O)[C@H](Cc1ccc(OC)cc1)NC(=O)[C@@H]1CSCC[C@H](NC(C)=O)C(=O)N[C@@H](CCC(N)=O)C(=O)N[C@@H]([C@@H](C)O)C(=O)N[C@@H](Cc2c[nH]c3ccccc23)C(=O)N[C@@H](CCC(N)=O)C(=O)N1)C(=O)N[C@@](C)(CCCCN)C(=O)N[C@@H](CCCCNC(C)=O)C(=O)N[C@@H](CC(N)=O)C(=O)NCC(N)=O | 10000 | 1 to 2 | 
COc1ccc(C[C@H](NC(=O)[C@@H]2CSCC[C@H](NC(C)=O)C(=O)N[C@@H](CCC(N)=O)C(=O)N[C@@H]([C@@H](C)O)C(=O)N[C@@H](Cc3c[nH]c4ccccc34)C(=O)N[C@@H](CCC(N)=O)C(=O)N2)C(=O)N[C@@H](Cc2ccc3ccccc3c2)C(=O)N[C@@H](CCCN)C(=O)N[C@@H](CCCCNC(C)=O)C(=O)N[C@@H](CC(N)=O)C(=O)NCC(N)=O)cc1 | 100 to 1000 | > 6 | 
CC(=O)N[C@H]1CCSC(C)(C)[C@@H](C(=O)N[C@@H](Cc2ccc(O)cc2)C(=O)N[C@@H](Cc2c[nH]c3ccccc23)C(=O)N[C@@H](CCC(C)C)C(=O)N[C@@H](CCC(=O)O)C(=O)N[C@@H](CC(N)=O)C(=O)NCC(N)=O)NC(=O)[C@H](CCC(N)=O)NC(=O)[C@H](Cc2c[nH]c3ccccc23)NC(=O)[C@H]([C@@H](C)O)NC(=O)[C@H](CCC(N)=O)NC1=O (Ac-[Abu(4-yl)]QTWQ[Pen]YW[hLeu]ENG-NH2; thioether 1-6) | > 1000 | < 1 | 
CC(=O)NC[C@H](NC(=O)[C@H](CCCN)NC(=O)[C@H](Cc1ccc2ccccc2c1)NC(=O)[C@H](Cc1ccc(OCCN)cc1)NC(=O)[C@@H]1CSCC[C@H](NC(C)=O)C(=O)N[C@@H](CCC(N)=O)C(=O)N[C@@H]([C@@H](C)O)C(=O)N[C@@H](Cc2c[nH]c3ccccc23)C(=O)N[C@@H](CCC(N)=O)C(=O)N1)C(=O)N[C@@H](CC(N)=O)C(=O)NCC(N)=O | 25 to 100 | < 1 | 
CC(=O)N[C@H]1CCSC[C@@H](C(=O)N[C@@H](Cc2ccc(OCCN)cc2)C(=O)N[C@@H](Cc2c[nH]c3ccccc23)C(=O)N[C@@H](CCCN)C(=O)N[C@@H](CCC(=O)O)C(=O)N[C@@H](CC(N)=O)C(=O)NCC(N)=O)NC(=O)[C@H](CCC(N)=O)NC(=O)[C@H](Cc2c[nH]c3ccccc23)NC(=O)[C@H]([C@@H](C)O)NC(=O)[C@H](CCC(N)=O)NC1=O | 25 to 100 | < 1 | 
CC(=O)NCCCC[C@H](NC(=O)[C@](C)(CCCCN)NC(=O)[C@H](Cc1ccc2ccccc2c1)NC(=O)[C@H](Cc1ccc(Oc2ccccc2)cc1)NC(=O)[C@@H]1CSCC[C@H](NC(C)=O)C(=O)N[C@@H](CCC(N)=O)C(=O)N[C@@H]([C@@H](C)O)C(=O)N[C@@H](Cc2c[nH]c3ccccc23)C(=O)N[C@@H](CCC(N)=O)C(=O)N1)C(=O)N[C@@H](CC(N)=O)C(=O)NCC(N)=O | 100 to 1000 | > 6 | 
CC(=O)N[C@@H](CS)C(=O)N[C@H](C(=O)N[C@@H](CC(=O)O)C(=O)N[C@@H](Cc1c[nH]c2ccccc12)C(=O)N[C@@H](CCCCN)C(=O)N[C@@H](CS)C(=O)N[C@@H](Cc1ccc(O)cc1)C(=O)N[C@@H](Cc1c[nH]c2ccccc12)C(=O)N[C@@H](Cc1cnc[nH]1)C(=O)N[C@H](C(=O)N[C@@H](Cc1ccccc1)C(=O)NCC(N)=O)[C@@H](C)O)[C@@H](C)O | 100 to 1000 |  | 100 to 1000
CC(=O)N[C@@H](CS)C(=O)N[C@@H](CCC(N)=O)C(=O)N[C@H](C(=O)N[C@@H](Cc1c[nH]c2ccccc12)C(=O)N[C@@H](CCC(N)=O)C(=O)N[C@H](C(=O)N[C@@H](Cc1ccc(O)cc1)C(=O)N[C@@H](Cc1c[nH]c2ccccc12)C(=O)N[C@H](CC(N)=O)C(=O)N[C@@H](CCC(=O)O)C(=O)N[C@@H](CC(N)=O)C(=O)NCC(N)=O)C(C)(C)S)[C@@H](C)O | 1000 to 10000 | < 1 | 
CC(=O)N[C@H](C(=O)N[C@@H](CCC(N)=O)C(=O)N[C@H](C(=O)N[C@@H](Cc1c[nH]c2ccccc12)C(=O)N[C@@H](CCC(N)=O)C(=O)N[C@H](C(=O)N[C@@H](Cc1ccc(O)cc1)C(=O)N[C@@H](Cc1c[nH]c2ccccc12)C(=O)N(C)[C@@H](CCCNC(=N)N)C(=O)N[C@@H](CCC(=O)O)C(=O)N[C@@H](CC(N)=O)C(=O)NCC(N)=O)C(C)(C)S)[C@@H](C)O)C(C)(C)S | > 30000 | 2 to 3 | 
CC(=O)NCCCC[C@H](NC(=O)[C@](C)(CCCCN)NC(=O)[C@H](Cc1ccc2ccccc2c1)NC(=O)[C@H](Cc1c(C)cc(O)cc1C)NC(=O)[C@@H]1CSCC[C@H](NC(C)=O)C(=O)N[C@@H](CCC(N)=O)C(=O)N[C@@H]([C@@H](C)O)C(=O)N[C@@H](Cc2c[nH]c3ccccc23)C(=O)N[C@@H](CCC(N)=O)C(=O)N1)C(=O)N[C@@H](CC(N)=O)C(=O)NCC(N)=O | > 1000 | > 6 | 
CC(=O)N[C@H]1CCSC[C@@H](C(=O)N[C@@H](Cc2ccc(OCCN)cc2)C(=O)N[C@@H](Cc2c[nH]c3ccccc23)C(=O)N[C@@H](CCCN)C(=O)N[C@@H](CN)C(=O)N[C@@H](CC(N)=O)C(=O)NCC(N)=O)NC(=O)[C@H](CCC(N)=O)NC(=O)[C@H](Cc2c[nH]c3ccccc23)NC(=O)[C@H]([C@@H](C)O)NC(=O)[C@H](CCC(N)=O)NC1=O | 100 to 1000 | < 1 | 
CC(=O)N[C@@H](CS)C(=O)N[C@@H](C)C(=O)N[C@@H](CC(=O)O)C(=O)N[C@@H](Cc1c[nH]c2ccccc12)C(=O)N[C@H](C(=O)N[C@@H](CS)C(=O)N[C@@H](Cc1ccc(O)cc1)C(=O)N[C@@H](Cc1c[nH]c2ccccc12)C(=O)N[C@H](Cc1cnc[nH]1)C(=O)N[C@H](C(=O)N[C@@H](Cc1ccccc1)C(=O)NCC(=O)NCCOCC(=O)N[C@H](CCCCN)C(N)=O)[C@@H](C)O)C(C)C | 100 to 1000 |  | 100 to 1000
CC(=O)N[C@@H](CS)C(=O)N[C@@H](CCC(N)=O)C(=O)N[C@H](C(=O)N[C@@H](Cc1c[nH]c2ccccc12)C(=O)N[C@@H](CCC(N)=O)C(=O)N[C@@H](CS)C(=O)N[C@@H](Cc1ccc(O)cc1)C(=O)N[C@@H](Cc1c[nH]c2ccccc12)C(=O)N[C@@H](CCC(C)C)C(=O)N[C@@H](CCC(=O)O)C(=O)N[C@@H](CC(N)=O)C(=O)NCC(=O)N[C@@H](CCCNC(=N)N)C(N)=O)[C@@H](C)O | > 10000 |  | > 1000
CC(=O)N[C@H](C(=O)N[C@@H](CC(N)=O)C(=O)N[C@H](C(=O)N[C@@H](Cc1c[nH]c2ccccc12)C(=O)N[C@@H](CCC(N)=O)C(=O)N[C@H](C(=O)N[C@@H](Cc1ccc(OCCN)cc1)C(=O)N[C@@H](Cc1ccc2ccccc2c1)C(=O)N[C@@](C)(CCCCN)C(=O)N[C@@H](CCC(=O)O)C(=O)N[C@@H](CC(N)=O)C(=O)NCC(N)=O)C(C)(C)S)[C@@H](C)O)C(C)(C)S | < 10 |  | < 10
CC(=O)N[C@H](C(=O)N[C@@H](CO)C(=O)N[C@H](C(=O)N[C@@H](Cc1c[nH]c2ccccc12)C(=O)N[C@@H](CCC(N)=O)C(=O)N[C@H](C(=O)N[C@@H](Cc1ccc(OCCN)cc1)C(=O)N[C@@H](Cc1ccc2ccccc2c1)C(=O)N[C@@](C)(CCCCN)C(=O)N[C@@H](CCC(=O)O)C(=O)N[C@@H](CC(N)=O)C(=O)NCC(N)=O)C(C)(C)S)[C@@H](C)O)C(C)(C)S | 10 to 25 |  | < 10
CC(=O)N[C@H]1CCSC[C@@H](C(=O)N[C@@H](Cc2ccc(F)c(F)c2)C(=O)N[C@@H](Cc2ccc3ccccc3c2)C(=O)NC(C)(C)C(=O)N[C@@H](CCC(=O)O)C(=O)N[C@@H](CC(N)=O)C(=O)NCC(N)=O)NC(=O)[C@H](CCC(N)=O)NC(=O)[C@H](Cc2c[nH]c3ccccc23)NC(=O)[C@H]([C@@H](C)O)NC(=O)[C@H](CCC(N)=O)NC1=O | 25 to 100 |  | 10 to 25
